Data taken from patent US9073864B2, “Aromatic ring compound” (TAKEDA PHARMACEUTICAL COMPANY LIMITED, priority 2012, dated 2015).

molecular target: T1, human type glucagon receptor (Homo sapiens, UniProt P47871); assay: Measurement of glucagon binding inhibitory activity ([125I]-glucagon, receptor membrane protein); details: test compound 10 μM; 0.4% DMSO alone = 0%, unlabeled glucagon 1 μM = 100%; read-out: inhibitory rate (%) at 10 μM
T1 construct: an about 1.4 kb DNA fragment containing glucagon receptor gene was recovered from the gel; expressed in transfected cells; host or cells: FreeStyle CHO cells (transient expression); membrane fraction prepared by homogenisation and ultracentrifugation
Experimental: The glucagon binding inhibitory action of the compound of the present invention was evaluated by the following method.
(1) Cloning of Human Glucagon Receptor Gene
Human glucagon receptor gene was cloned by PCR reaction using human pancreas Marathon-ready cDNA (Clontech Laboratories, Inc.) as a template and the following primer set.
The PCR reaction was performed using Advantage 2 polymerase (Clontech Laboratories, Inc.) and according to the attached protocol. The obtained PCR product was subjected to agarose gel (1%) electrophoresis, an about 1.4 kb DNA fragment containing glucagon receptor gene was recovered from the gel, and digested with restriction enzymes EcoRI and NotI. The restriction enzyme-treated DNA was subjected to agarose gel (1%) electrophoresis, an about 1.4 kb DNA fragment was recovered and ligated with plasmid pMSRaneo digested with restriction enzymes EcoRI and NotI to give human type glucagon receptor expression plasmid DNA “pMSRaneo/hGCGR”. The base sequence of the inserted fragment was confirmed to be identical with the object sequence.
(2) Preparation of Glucagon Receptor Membrane Protein
Human type glucagon receptor was expressed using FreeStyle CHO Expression System (Invitrogen™). According to the manual attached to the FreeStyle CHO Expression System, and using the human type glucagon receptor expression plasmid DNA “pMSRaneo/hGCGR” produced in the above-mentioned (1), transient expression was performed by FreeStyle CHO cells. The above-mentioned DNA was transfected, and shaking culture was performed at 37° C., 8% CO2, 125 rpm for 2 days. The culture medium was centrifuged at 2,000 rpm for 10 min and the cells were recovered. The recovered cells were washed with PBS, suspended in homogenate buffer [10 mM NaHCO3 (pH 7.4), 1 mM EDTA, complete EDTA-free (Roche, Ltd., 1 tablet/50 ml)], and the cells were disrupted by a Polytron cell disruption apparatus (Kinematica AG). The disruption solution was centrifuged at 2,000 rpm for 10 min, and the supernatant was recovered. The supernatant was centrifuged at 35,000 rpm for 60 min, and the precipitate was suspended in a buffer [20 mM Tris-HCl (pH 7.4), 5 mM EDTA, complete EDTA-free (Roche, Ltd., 1 tablet/50 ml)] to give a glucagon receptor membrane protein.
(3) Measurement of Glucagon Binding Inhibitory Activity
The reaction was started by adding 50 μl of a glucagon receptor membrane protein solution diluted with a reaction buffer [50 mM HEPES (pH 7.4), 5 mM EGTA, 5 mM magnesium chloride, 0.1% BSA, 0.005% Tween20] to 100 μg/ml, 25 μl of a test compound solution containing 0.4% DMSO, which solution was prepared with the reaction buffer to a compound concentration of 40 μM, and 25 μl of radiolabeled glucagon ([^125I]-Receptor Grade Glucagon; Perkin Elmer Inc.) diluted with the reaction buffer to 200 pM to each well of a 96 well plate (Corning Incorporated). The plate was stood at room temperature for 90 min, then the reaction solution was transferred from the reaction plate onto a 96 well unifilter GF/C plate (Perkin Elmer Inc.) by a cell harvester (Perkin Elmer Inc.), and suctioned to collect a membrane fraction on the filter. The filter was immersed in a 0.3% polyethyleneimine solution in advance to prevent non-specific adsorption of the labeled ligand. The filter was washed 4 times with the reaction buffer, and dried at 42° C. for 2 hr. To each well was added 25 μl of scintillator (MicroScint0; Perkin Elmer Inc.), and the amount of fluorescence was measured by a microplate scintillation counter (TopCount NXT™; Perkin Elmer Inc.).
The inhibitory rate (%) of the well added with the test compound (10 μM; containing 0.4% DMSO solution) was calculated wherein the reaction rate of the well added with 0.4% DMSO alone was 0% inhibitory rate and that of the well added with unlabeled glucagon (final concentration 1 μM) was 100% inhibitory rate.

T1 sequence (P47871 26-477): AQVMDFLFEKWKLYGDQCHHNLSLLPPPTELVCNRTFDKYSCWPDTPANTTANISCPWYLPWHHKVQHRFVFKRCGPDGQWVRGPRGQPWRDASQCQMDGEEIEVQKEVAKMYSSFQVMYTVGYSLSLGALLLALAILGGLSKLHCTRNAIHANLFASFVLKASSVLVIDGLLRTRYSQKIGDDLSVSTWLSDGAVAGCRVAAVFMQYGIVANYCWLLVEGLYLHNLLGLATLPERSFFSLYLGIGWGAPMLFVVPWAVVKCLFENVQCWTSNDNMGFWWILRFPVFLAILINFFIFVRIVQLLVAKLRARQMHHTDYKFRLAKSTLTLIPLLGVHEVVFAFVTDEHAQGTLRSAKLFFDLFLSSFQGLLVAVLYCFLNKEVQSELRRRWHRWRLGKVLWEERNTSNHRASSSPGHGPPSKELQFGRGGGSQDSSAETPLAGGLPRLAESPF

| inhibition at 10 µM | Compound |
| --- | --- |
| 90% | Cc1cc(-c2ccc(C(F)(F)F)nc2)ccc1C(CCC(F)(F)F)Nc1ccc(C(=O)N2CCC[C@@H](C(=O)O)C2)cc1 (mixture of isomers) [Example 9, (3R)-1-(4-((4,4,4-trifluoro-1-(2-methyl-4-(6-(trifluoromethyl)pyridin-3-yl)phenyl)butyl)amino)benzoyl)piperidine-3-carboxylic acid] |
| 88% | Cc1cc(-c2ccc(C(F)(F)F)cn2)ccc1C(CCC(F)(F)F)Nc1ccc(C(=O)N2CCC[C@@H](C(=O)O)C2)cc1 (mixture of isomers) [Example 10, (3R)-1-(4-((4,4,4-trifluoro-1-(2-methyl-4-(5-(trifluoromethyl)pyridin-2-yl)phenyl)butyl)amino)benzoyl)piperidine-3-carboxylic acid] |
| 93% | Cc1cc(-c2ncc(C(F)(F)F)cn2)ccc1C(CCC(F)(F)F)Nc1ccc(C(=O)N2CCC[C@@H](C(=O)O)C2)cc1 (mixture of isomers) [Example 11, (3R)-1-(4-((4,4,4-trifluoro-1-(2-methyl-4-(5-(trifluoromethyl)pyrimidin-2-yl)phenyl)butyl)amino)benzoyl)piperidine-3-carboxylic acid] |
| 96% | Cc1cc(-c2ncc(Cl)cn2)ccc1C(CCC(F)(F)F)Nc1ccc(C(=O)N2CCC[C@@H](C(=O)O)C2)cc1 (mixture of isomers) [Example 12, (3R)-1-(4-((1-(4-(5-chloropyrimidin-2-yl)-2-methylphenyl)-4,4,4-trifluorobutyl)amino)benzoyl)piperidine-3-carboxylic acid] |
| 84% | CCc1cnc(-c2ccc(C(CCC(F)(F)F)Nc3ccc(C(=O)N4CCC[C@@H](C(=O)O)C4)cc3)c(C)c2)nc1 (mixture of isomers) [Example 13, (3R)-1-(4-((1-(4-(5-ethylpyrimidin-2-yl)-2-methylphenyl)-4,4,4-trifluorobutyl)amino)benzoyl)piperidine-3-carboxylic acid] |
| 87% | Cc1cc(-n2ccc(C(C)C)n2)ccc1C(CCC(F)(F)F)Nc1ccc(C(=O)N2CCC[C@@H](C(=O)O)C2)cc1 (mixture of isomers) [Example 19, (3R)-1-(4-((4,4,4-trifluoro-1-(4-(3-isopropyl-1H-pyrazol-1-yl)-2-methylphenyl)butyl)amino)benzoyl)piperidine-3-carboxylic acid] |
| 93% | Cc1cc(-n2cc3c(n2)CCCC3)ccc1C(CCC(F)(F)F)Nc1ccc(C(=O)N2CCC[C@@H](C(=O)O)C2)cc1 (mixture of isomers) [Example 20, (3R)-1-(4-((4,4,4-trifluoro-1-(2-methyl-4-(4,5,6,7-tetrahydro-2H-indazol-2-yl)phenyl)butyl)amino)benzoyl)piperidine-3-carboxylic acid] |
| 90% | Cc1cc(-n2cc3c(n2)CCCC3)ccc1C(Nc1ccc(C(=O)N2CCC[C@@H](C(=O)O)C2)cc1)C(C)C (mixture of isomers) [Example 116, (3R)-1-(4-((2-methyl-1-(2-methyl-4-(4,5,6,7-tetrahydro-2H-indazol-2-yl)phenyl)propyl)amino)benzoyl)piperidine-3-carboxylic acid] |
| 86% | Cc1cc(-c2ccc(F)cc2)ccc1C(CCC(F)(F)F)Nc1ccc(C(=O)N2CCC[C@@H](C(=O)O)C2)cc1 (stereo partly drawn) [Example 5, (3R)-1-(4-((4,4,4-trifluoro-1-(4′-fluoro-3-methylbiphenyl-4-yl)butyl)amino)benzoyl)piperidine-3-carboxylic acid] |
| 85% | Cc1cc(-c2ccc(F)cc2)ccc1C(CCC(F)(F)F)Nc1ccc(C(=O)N2CCC[C@@H](C(=O)O)C2)cn1 (stereo partly drawn) [Example 6, (3R)-1-((6-((4,4,4-trifluoro-1-(4′-fluoro-3-methylbiphenyl-4-yl)butyl)amino)pyridin-3-yl)carbonyl)piperidine-3-carboxylic acid] |
| 91% | COc1ccc(-c2ccc(C(CCC(F)(F)F)Nc3ccc(C(=O)N4CCC[C@@H](C(=O)O)C4)cc3)c(C)c2)cc1 (stereo partly drawn) [Example 7, (3R)-1-(4-((4,4,4-trifluoro-1-(4′-methoxy-3-methylbiphenyl-4-yl)butyl)amino)benzoyl)piperidine-3-carboxylic acid] |
